# Source: ChEMBL document CHEMBL5512599, “Synthetic non-toxic anti-biofilm agents as a strategy in combating bacterial resistance” (Eur J Med Chem, 2023)
# Tests used:
# Staphylococcus aureus [1] = assay: Antibacterial activity against Staphylococcus aureus ATCC 25923 assessed as reduction in bacterial growth incubated for 18 to 24 hrs by broth microdilution method; format: functional; conditions: time 18-24 hrs
# Staphylococcus aureus [2] = assay: Antibacterial activity against Staphylococcus aureus ATCC 29213 assessed as reduction in bacterial growth incubated for 18 to 24 hrs by broth microdilution method; format: functional; conditions: time 18-24 hrs
# Staphylococcus aureus [3] = assay: Antibacterial activity against Staphylococcus aureus ATCC 6538 assessed as reduction in bacterial growth incubated for 18 to 24 hrs by broth microdilution method; format: functional; conditions: time 18-24 hrs
# [4] = tested on: Staphylococcus epidermidis; assay: Antibacterial activity against Staphylococcus epidermidis RP62A assessed as reduction in bacterial growth incubated for 18 to 20 hrs by broth microdilution assay; format: functional; conditions: time 18-20 hrs
# [5] = Inhibition of Staphylococcus aureus sortase A by FRET assay
# Enterococcus faecalis [6] = assay: Antibacterial activity against Enterococcus faecalis ATCC 29212 assessed as bacterial growth inhibition incubated for 15 to 18 hrs by Muller hinton broth based dilution assay; format: functional; conditions: time 15-18 hrs
# Enterococcus faecalis [7] = assay: Antibiofilm activity against Enterococcus faecalis ATCC 29212 assessed as biofilm eradication incubated for 20 mins by crystal violet staining based analysis; format: functional
# Staphylococcus aureus [8] = assay: Antibiofilm activity against Methicillin-resistant Staphylococcus aureus ATCC BAA-4A assessed as inhibition of biofilm formation; format: functional, organism-based
# Pseudomonas aeruginosa [9] = assay: Antibiofilm activity against Pseudomonas aeruginosa PAO1 assessed as inhibition of biofilm formation incubated at 100 uM incubated for 24 hrs by crystal violet staining based analysis relative to control; format: functional; set-up: scale not given: the % may be the effect or the level left
# Pseudomonas aeruginosa [10] = assay: Anti-motility activity against Pseudomonas aeruginosa PAO1 assessed as reduction in swarming at 20 uM incubated for 16 hrs by crystal violet staining analysis relative to control; format: functional; set-up: scale not given: the % may be the effect or the level left
# [11] = tested on: Staphylococcus epidermidis; assay: Antibiofilm activity against Staphylococcus epidermidis assessed as inhibition of biofilm formation at 40 uM measured after 24 hrs by confocal laser scanning microscopy analysis relative to control; format: functional; set-up: scale not given: the % may be the effect or the level left
# [12] = Inhibition of quorum sensing system in Pseudomonas aeruginosa PAO1 assessed as inhibition of pyocyanin production at 256 ug/ml incubated for 24 hrs by absorbance based assay
# Pseudomonas aeruginosa [13] = assay: Antibiofilm activity against Pseudomonas aeruginosa PAO1 assessed as inhibition of biofilm formation at 100 uM relative to control; format: functional; set-up: scale not given: the % may be the effect or the level left
# Pseudomonas aeruginosa [14] = assay: Antibiofilm activity against Pseudomonas aeruginosa PA14 assessed as inhibition of biofilm formation incubated for 24 hrs by microscopic analysis; format: functional, organism-based; conditions: PA14, 24 h
# [15] = molecular target: T1, Transcriptional regulator MvfR (Pseudomonas aeruginosa PA14, UniProt A0A072ZLE6); assay: Antagonist activity at PqsR in wild-type Pseudomonas aeruginosa PAO1-L
# T1 sequence (A0A072ZLE6 whole entry): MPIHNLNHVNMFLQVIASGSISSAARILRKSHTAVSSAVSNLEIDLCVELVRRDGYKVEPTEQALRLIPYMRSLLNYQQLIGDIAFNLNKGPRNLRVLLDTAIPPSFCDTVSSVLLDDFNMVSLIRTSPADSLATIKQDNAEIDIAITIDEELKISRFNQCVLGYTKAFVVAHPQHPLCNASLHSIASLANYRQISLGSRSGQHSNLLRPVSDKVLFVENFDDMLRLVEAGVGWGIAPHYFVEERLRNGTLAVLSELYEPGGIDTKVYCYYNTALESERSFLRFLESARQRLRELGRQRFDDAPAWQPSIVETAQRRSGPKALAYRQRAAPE
# Pseudomonas aeruginosa [16] = assay: Antibiofilm activity against Pseudomonas aeruginosa PAO1 assessed as inhibition of biofilm formation incubated at 15 uM relative to control; format: functional; set-up: scale not given: the % may be the effect or the level left
# Staphylococcus aureus [17] = assay: Antibiofilm activity against Staphylococcus aureus ATCC 33862 assessed as reduction in biofilm formation at 20 uM incubated for 24 hrs by absorbance based assay relative to control; format: functional; set-up: scale not given: the % may be the effect or the level left
# Pseudomonas aeruginosa [18] = assay: Antibiofilm activity against Pseudomonas aeruginosa ATCC 10145 assessed as reduction in biofilm formation at 20 uM incubated for 24 hrs by absorbance based assay relative to control; format: functional; set-up: scale not given: the % may be the effect or the level left
# [19] = Inhibition of quorum sensing system in Pseudomonas aeruginosa PA14 assessed as inhibition of pyocyanin production
# Pseudomonas aeruginosa [20] = assay: Antibiofilm activity against Pseudomonas aeruginosa ATCC 27853 assessed as inhibition of biofilm formation at 0.5 times of MIC by crystal violet staining based analysis relative to control; format: functional; set-up: scale not given: the % may be the effect or the level left
# Staphylococcus aureus [21] = assay: Antibiofilm activity against methicillin-resistant Staphylococcus aureus assessed as inhibition of biofilm formation incubated for overnight by crystal violet staining based microtiter plate assay; format: functional, organism-based
# [22] = molecular target: T1, Transcriptional regulator MvfR; assay: Antagonist activity at PqsR in wild-type Pseudomonas aeruginosa PAO1 assessed as reduction in AQ level at 0.2 uM by LCMS/MS analysis
# Staphylococcus aureus [23] = assay: Antimicrobial activity against Staphylococcus aureus ATCC 25923 assessed as reduction in bacterial growth at 0.5 uM incubated for 16 hrs by broth dilution method relative to control; format: functional; set-up: scale not given: the % may be the effect or the level left
# Staphylococcus aureus [24] = assay: Antimicrobial activity against Staphylococcus aureus ATCC 25923 assessed as reduction in bacterial growth at 0.25 uM incubated for 16 hrs by broth dilution method relative to control; format: functional; set-up: scale not given: the % may be the effect or the level left
# Staphylococcus aureus [25] = assay: Antimicrobial activity against Staphylococcus aureus ATCC 25923 assessed as reduction in bacterial growth at 0.12 uM incubated for 16 hrs by broth dilution method relative to control; format: functional; set-up: scale not given: the % may be the effect or the level left
smiles,measurement,setting,value
CC(=O)/C(=N\Nc1cccc(Cl)c1)C(=O)O,MIC,Staphylococcus aureus [1],> 270 µM
same,MIC,Staphylococcus aureus [2],> 270 µM
same,MIC,Staphylococcus aureus [3],> 270 µM
same,MIC,[4],> 270 µM
same,IC50,[5],87 µM
N#Cc1ccc(-c2csc(-c3ccc(-c4cnc(-c5ccccc5)s4)cc3)n2)cc1,MIC,Enterococcus faecalis [6],0.062 µg/mL
same,MBEC,Enterococcus faecalis [7],0.002 µg/mL
CCCCCc1ccc(C(=O)NCCn2cc(CCCCCc3[nH]cnc3-c3ccoc3)nn2)cc1,IC50,Staphylococcus aureus [8],3.7 µM
O=C(CCCNc1ccc(F)cc1)NC1CCOC1=O (stereo not given),Activity,Pseudomonas aeruginosa [9],70%
CN(C)c1cccc(/C=N/N=C2\SCC(=O)N2c2ccc(S(N)(=O)=O)cc2)c1,Activity,Pseudomonas aeruginosa [10],70%
same,Activity,[11],70%
COC(=O)c1ccnc(C(F)F)c1,IC50,[12],27 µM
same,Activity,Pseudomonas aeruginosa [13],85%
CCCCCCN(CCCCCC)C(=O)CCCc1c[nH]c(N)n1,IC50,Pseudomonas aeruginosa [14],60 µM
CCCCCCCCCc1nc2cc(Cl)ccc2c(=O)n1N,IC50,[15],1.2 µM
COc1ccc(-c2csc(-c3ccc(-c4cnc(-c5ccccc5)s4)cc3)n2)cc1,MIC,Enterococcus faecalis [6],0.062 µg/mL
same,MBEC,Enterococcus faecalis [7],0.004 µg/mL
Cc1cccc(NC(=O)CC(=O)CSC(=S)N[C@@H]2CCOC2=O)c1,Activity,Pseudomonas aeruginosa [16],35%
CC(=O)/C(=N\Nc1ccc(Cl)c(Cl)c1)C(=O)O,MIC,Staphylococcus aureus [1],> 270 µM
same,MIC,Staphylococcus aureus [2],> 270 µM
same,MIC,Staphylococcus aureus [3],> 270 µM
same,MIC,[4],> 270 µM
same,IC50,[5],50 µM
CCCCCCCCCCCc1c[nH]c(N)n1,IC50,Pseudomonas aeruginosa [14],19 µM
O=C(c1ccc(Cl)cc1)c1ccnc(C(F)F)c1,IC50,[12],35 µM
same,Activity,Pseudomonas aeruginosa [13],71%
CCCCCCCCCCCCCC(=O)Nc1cc(=O)c2ccccc2[nH]1,Activity,Staphylococcus aureus [17],>=50%
same,Activity,Pseudomonas aeruginosa [18],>=50%
CCCCCCCCCCCCCC(=O)Nc1c(N)[nH]c2ccccc2c1=O,Activity,Staphylococcus aureus [17],>=50%
same,Activity,Pseudomonas aeruginosa [18],>=50%
NCCCCCCCCCCCCNc1ccnc2cc(C(F)(F)F)ccc12,IC50,[19],50 µM
same,Activity,Pseudomonas aeruginosa [20],75%
C/C(=C\c1ccc2ccccc2c1)Cn1cc(CCCCCc2c[nH]c(N)n2)nn1,IC50,Staphylococcus aureus [21],< 10 µM
CC(=O)/C(=N\Nc1ccc([N+](=O)[O-])cc1)C(=O)O,MIC,Staphylococcus aureus [1],> 270 µM
same,MIC,Staphylococcus aureus [2],> 270 µM
same,MIC,Staphylococcus aureus [3],> 270 µM
same,MIC,[4],> 270 µM
same,IC50,[5],57 µM
CCCCCCCCCCCCCCCC(=O)Nc1cc(=O)c2ccccc2[nH]1,Activity,Staphylococcus aureus [17],>=50%
same,Activity,Pseudomonas aeruginosa [18],>=50%
O=C(CCCNc1ccc(Cl)cc1)NC1CCOC1=O (stereo not given),Activity,Pseudomonas aeruginosa [9],70%
N#CCc1ccc(OC[C@H](O)Cn2cnc3ccc(Cl)cc3c2=O)cc1,IC50,[22],1.1 µM
CCCCCc1ccc(C(=O)NCCn2cc(CCCCCc3[nH]cnc3-c3ccc4c(c3)OCO4)nn2)cc1,IC50,Staphylococcus aureus [8],3.7 µM
Cc1ccc(C(=O)c2nn(-c3nc(-c4ccccc4)c(-c4sc(-n5nc(C(=O)c6ccc(C(F)(F)F)cc6)c(C(N)=O)c5N)nc4-c4ccccc4)s3)c(N)c2C(N)=O)cc1,Activity,Staphylococcus aureus [23],77%
same,Activity,Staphylococcus aureus [24],50%
same,Activity,Staphylococcus aureus [25],35%
CCCCOc1ccc(/C=C(\C)Cn2cc(CCCCCc3c[nH]c(N)n3)nn2)cc1,IC50,Staphylococcus aureus [21],< 10 µM
CCCCCCC(CCCCCC)NC(=O)CCCc1c[nH]c(N)n1,IC50,Pseudomonas aeruginosa [14],16 µM
CCOC(=O)C1S/C(=N\N=C\c2cccc(Cl)c2)N(c2ccc(S(N)(=O)=O)cc2)C1=O (stereo not given),Activity,Pseudomonas aeruginosa [10],72%
same,Activity,[11],80%
